Reference: publication PMC9841397 (2023)

Tested on: CMP-D-C3 (C3, ΔP1a) (RNA, riboswitch) GGAGCGUUACGUCCGCCCACGGCUCUUUAAAAACAAAAGGA
Test: ITC
Details: 100 mM K+, 20 mM Mg2+; 50 mM K-MOPS pH 7.5, 25 °C

Kd: 18.3 ± 1.2 µM
Structure (SMILES): NC(=O)c1ccc[n+]([C@@H]2O[C@H](COP(=O)(O)O)[C@@H](O)[C@H]2O)c1
